Measurements: patent US20210085749A1, “Therapeutic and Neuroprotective Peptides” (Allegro Pharmaceuticals, LLC, priority 2017, published 2021)
Several values for one entry are separate records, joined by “and”; a condition that tells them apart may be missing. Equal values may be shown once. Entries after “also recorded” stand apart in the source; their conditions may differ. Square brackets hold non-standard residues; d marks the D form. Peptide text beside a SMILES is read from it. Cya = N[CH](CS(=O)(=O)O)C(=O)O

Legend:
ARPE-19 cells = experiment: In vitro protection of RPE cells against hydrogen peroxide, Trypan blue exclusion cell count; type: cell-based; details: 8 hours post exposure
Protocol: Hydrogen peroxide (H2O2), a physiological mediator of oxidative stress, is known to induce apoptosis in retinal pigment epithelial (RPE) cells.
ARPE-19 cells were incubated in DMEM/F12 medium supplemented with 10% fetal bovine serum (FBS) and 50 μg/ml streptomycin and 50 μg/ml of penicillin at 37° C. in an atmosphere of 5% CO2.To induce differentiation, ARP-19 cells were cultured in a Laminin coated transwells for 2 weeks in the same medium supplemented with 1% FBS and antibiotics. The RPE cells were then isolated and aliquots of about 150 μl-200 μl of cell suspension were dispensed into the petri dishes containing control medium. The cells were then incubated at 37 degrees C. for 24 hours before use.
Thereafter, the following four (4) separate neuronal cell dishes were prepared as shown below: • A) Control Retinal RPE cells; • B) Retinal RPE cells incubated with 1.0 mg/ml ALG-1001 (Luminate); • C) Retinal RPE cells incubated with 100 μM of Hydrogen Peroxide; and • D) Retinal RPE cells incubated with 1.0 mg/ml ALG-1001 (Luminate) for 24 hours before exposure to 100 μM of Hydrogen Peroxide.
(§1) Eight (8) hours post exposure, the cell numbers were measured using Trypan blue exclusion assay in a Neubaur Chamber.

Wister rat retina = experiment: In vivo dose-related neurotoxic effects of intravitreal Kainic acid, retinal histopathology; set-up: species or system Wister rats; details: intravitreal 20 μl of 0.5, 5.0, 50.0 mM; 24 hours post treatment
Protocol: The right eyes of 4 Wister rats were injected intravitreally with 20 μl of the four different solutions, as follows: A) BSS solution as control, B) 0.5 mM of Kainic acid, C) 5.0 mM of Kainic acid and D) 50.0 mM of Kainic acid.
The rats were sacrificed 24 hours post treatment and the eyes were prepared for Histopathology examination.

Retinal Neuronal cells = experiment: In vitro protection of retinal neuronal cells against Kainic acid, Trypan blue exclusion cell count; type: cell-based, CD1 mice; details: 8 hours post exposure
Protocol: CD1 mice were euthanized by decapitation, eyes were rapidly enucleated into DMEM complement with antibiotic solution and the retina were isolated from the pigment epithelium.
The isolated retina was incubated in Hank's medium containing 2.5 mg/ml papain and 0.1 mg/ml of cysteine for 15 minutes at 30° C. After rinsing the Hank's medium, supplemented with 1.9 mM of CaCl2), 0.6 mM of MgCl2 and 0.1 mg/ml of bovine serum albumin.
The retina was mechanically dissociated, about 150 μl-200 μl of cell suspension was dispensed into the petri dish containing control medium. Bipolar cells were identified under a microscope by the cells morphology. The cells were incubated for 6 hours before use.
Four (4) separate Neuronal cell dishes were prepared, as follows: A) Control Retinal Neuronal cells, B) Retinal Neuronal cells incubated with ALG-1001 (Luminate) 1.0 mg/ml, C) Retinal Neuronal cells incubated with […], D) Retinal Neuronal cells incubated with Luminate 1.0 mg/ml for 24 hours before exposure to 500 μM of Kainic acid.
as §1

retinal ganglion cells = experiment: Ocular neuroprotection in vivo, rat model of elevated intraocular pressure (optic nerve ligation), ganglion cell counts; set-up: species or system Wister rats
Protocol: Healthy Wister rats (n=8) ten (10) weeks of age were kept in a vivarium maintained at a constant temperature of 26° C., and a constant light-dark cycle (14 hours and 10 hours respectively) with food available ad libitum. The rats were randomly divided into a Luminate treatment group of five (5) animals (Group A) and a Basic Salt Solution (BSS-control) treatment group of three (3) animals (Group B).
The animals of Group A each received a single intravitreal injection of 1.28 mg/20 μL of Luminate in the right eye. The animals of Group B each received a single intravitreal injection of 20 μL of balanced salt solution (BSS). The left eyes of all animals in Groups A and B were not injected and were used as untreated controls. The intravitreal injections were administered 2 mm posterior to the limbus in the supronasal quadrant using a 30-gauge needle attached to a 1.0 cc syringe. Care was taken to avoid damage to the lens or retina.
Twenty-four (24) hours after administration of the injections the rats were anesthetized by intraperitoneal injection of 3.0 mL/kg of a mixture of ketamine Hydrochloride (2.5 mg/mL), diazepam (2.0 mg/mL) and atropine (0.1 mg/mL). The eyes were then subjected to peritoneal conjunctival detachment of the lateral rectus muscle to expose the optic nerve. The optic nerve was then ligated with silk suture for a period of 60 minutes during which the absence of blood flow in the retina of each ligated eye was verified by inspection using a Plano contact lens. The ligatures were removed after 60 minutes, and restoration of blood flow to the retina was verified in each previously-ligated eye using the Plano contact lens.
The eyes were then enucleated and fixed for histopathological analysis. Specimens of the retina and optic nerve from each eye were dehydrated and embedded in paraffin. Horizontal sections 4 microns thick were cut and stained with hematoxylin and eosin. Under light microscopy, ganglion cell counts were counted in axial sections of the retina of each eye from ora serrata through the optic nerve. Also, in each section, the number of ganglion cells per millimeter through the total length of the retina was calculated digitally, using a measuring slide calibrated for this purpose.
Measurement of the inner plexiform layer was performed by observing the slides at a magnification of 40× no more than 1 mm from the optic nerve.
The results were subjected to statistical analysis. The results for each group were expressed as mean±standard deviation and the statistical significance between the results of the groups was evaluated by 2 way ANOVA as well as the Mann-Whitney U test. Probabilities of <0.05 were deemed to be significant.

retinal Muller cells = experiment: In vitro protection of retinal Muller cells against Kainic acid, Trypan blue exclusion cell count; type: cell-based, CD1 mice; details: 1.0 mg/ml for 24 hours before exposure to 500 μM Kainic acid (Plate D), 48 hours post exposure
Protocol: CD1 mice were euthanized by decapitation, eyes were rapidly enucleated into DMEM complement with antibiotic solution and stored overnight at room temperature. Subsequently the intact globes were incubated in DMEM containing 0.1% trypsin and 70 U/ml collagenase at 37° C. for 60 minutes.
The incubated materials were placed in a petri dish containing DMEM supplemented with 10% fetal bovine serum, and the retinas were removed without the RPE cells into small aggregates and seeded into 35 mm culture dishes. Medium was unchanged for 6 days and then replenished every 3-4 days. The cultures were maintained at 37° C. in a […]/95% O2 in a humidified incubator.
When the cell outgrowth had attained semiconfluency, (80%) retinal aggregates were removed by pipetting the medium into the dish. This operation was repeated three (3) times until a purified flat cell population was obtained. After 24 hours, the cells were exposed to the experimental conditions.
Four (4) separate Muller cell dishes were prepared, as follows: A) Control Muller cells; B) Muller cells incubated with ALG-1001 (Luminate) 1.0 mg/ml; C) Muller cells incubated with 500 μM of Kainic acid and D) Muller cells incubated with Luminate 1.0 mg/ml for 24 hours before exposure to 500 μM of Kainic acid. Forty Eight (48) hours post exposure, the cell numbers were measured using Trypan blue exclusion assay in a Neubaur Chamber.

[1] = Human prospective open label study in Dry AMD, Best Corrected Visual Acuity; type: in vivo; details: individual Dry AMD patient; single intravitreal injection 1.0 mg/50 μL
Protocol: To determine if a single Luminate intravitreal injection of 1.0 mg/50 μL has any effect on improving Best Corrected Visual Acuity (BCVA) of Dry AMD subjects with moderate to moderately sever Dry AMD. This is a prospective interventional, open label, IRB approved human clinical proof of concept study conducted in 7 human subjects with moderate to moderately severe Dry AMD. Main inclusion criteria involved patients with Dry Macular Degeneration eyes with relatively intact photoreceptor and RPE layers in the central 1 mm of the macula by OCT. The baseline BCVA of the subjects was between 20/30 and 20/400 with no evidence of sub-retinal fluid or CNV and no history of Anti-VEGF treatment. All recruited patients underwent a baseline single intravitreal injection of Luminate 1.0 mg/50 μL and were monitored monthly, in addition central macular thickness, OCT, digital color photographs and pre and post treatment BCVA were obtained.

In the case of OO [Hydrogen Peroxide, Hydrogen peroxide, reference compound], the “RPE cell count, % of the control cell count” value (ARPE-19 cells; 100 μM Hydrogen Peroxide alone (Plate C)) is reported as 78%.

For C=C(C)[C@H]1CN[C@H](C(=O)O)[C@H]1CC(=O)O [Kainic acid, reference compound], the “retinal degeneration by histopathology” value (Wister rat retina) was “dose-related retinal neurotoxisity” and the “neuronal cell count, % compared to Control” value (Retinal Neuronal cells; 100 μM Kainic acid only (Plate C)) was 58%.

With CC(O)C(NC(=O)C(CS(=O)(=O)O)NC(=O)CNC(=O)C(CCCNC(=N)N)NC(=O)CN)C(=O)N1CCCC1C(=O)O (centres unmarked) [Luminate, Glycinyl-Arginyl-Glycinyl-Cysteic-Threonyl-Proline] (H-GRG[Cya]TP-OH; configuration not given here) the “Difference between medians: Actual (CONTROLS vs. CASES)” value (retinal ganglion cells; ganglion cells per field, BSS controls minus treated) was −9.000, the “Difference between medians: Hodges-Lehmann (CONTROLS vs. CASES)” value (retinal ganglion cells; ganglion cells per field, 95.05% CI −13.00 to −6.000) was −10.00 and the “neuroprotective effect in rat model of elevated IOP” value (retinal ganglion cells; intravitreal administration, p<0.0001 vs BSS (ANOVA, Mann-Whitney)) was “significant neuroprotective effects”. For the same compound, the “Median of column A (ganglion cells per field, CASES)” value (retinal ganglion cells; n = 54 fields, Mann-Whitney vs BSS controls P<0.0001) was 18.00, n = 54, the “SUM of ganglion cells over all fields” value (retinal ganglion cells; per treated eye (case), intravitreal 1.28 mg/20 μL 24 h before 60 min optic nerve ligation) was 234 and 165 and 259 and 218 and 175 and the “RPE cell count, % of the control cell count” value (ARPE-19 cells; 1.0 mg/ml for 24 hours before exposure to 100 μM Hydrogen Peroxide (Plate D)) was 90%. The “Muller cell count compared with other plates” value (retinal Muller cells) was “higher Muller cell count than any of the other plates”, the “BCVA 3 Months Post Treatment” value [1] was 1.0 log Mar (2×) and 1.3 log Mar and 0.20 log Mar and 0.3 log Mar and 0.6 log Mar and the “BCVA 3 Months Post Treatment (Snellen)” value [1] was 20/200 (2×) and 20/400 and 20/32 and 20/40 and 20/80. For the same compound, the “BCVA letters gained 3 Months Post Treatment vs baseline” value [1] was “up to 20 letters; also recorded: Gained 15 letters; also recorded: Gained no letters; also recorded: Gained 10 letters; also recorded: Gained 20 letters” and the “neuronal cell count, % of Control” value (Retinal Neuronal cells; 1.0 mg/ml for 24 hours before exposure to 500 μM Kainic acid (Plate D)) was 80%.
